From patent US12599599B2, “Anti-inflammatory, anti-cancer, and anti-angiogenic compounds, pharmaceutical compositions, and methods of making and using thereof” (MEDICON PHARMACEUTICALS, INC., priority 2017, dated 2026)
pIC50: −log10 of the molar value.

What was measured:
[1] = system: Ras palmitoylation in A2780 and A2780cis ovarian cancer cells; assay: Ras palmitoylation (resin capture, immunoblot); format: cell-based, human
Procedure: FIGS. 18A-18B illustrate the effect of compounds 5 and 6 on K-Ras. FIG. 18A: Compound 6 suppressed of K-Ras activation. Cells with mutant K-Ras were treated with compound 6 1.5×IC50 for the respective time periods. K-Ras activity was determined by Ras pull-down (Thermo Scientific; following vendor instructions). K-Ras activation is suppressed 37% at 1 hr and 88% at 2 hrs compared to respective controls. FIG. 18B: Compound 5 suppressed the palmitoylation of Ras in A2780 and A2780cis (resistant to cisplatin) ovarian cancer cells. Palmitoylation is detected by removing S-palmitate groups from proteins, creating new free thiols (where the palmitic acid group used to be) and capturing the previously S-palmitoylated proteins on a resin, using a commercial kit (Badrilla, Leeds, UK). Ras was detected in the eluate by immunoblot.
This effect may be particularly useful in types of cancer characterized by K-Ras mutation such as, for example, pancreatic, lung and ovarian cancer. FIG. 18A illustrates the inhibition of K-Ras activation by compound 6. […] This property of compound 5 is not shared for example by compound 6 or phosphosulindac.

[2] = system: A2780 xenografts; assay: Subcutaneous xenografts in nude mice, platinum sensitive; format: in vivo; conditions: compound 5 15 mg/kg/day six days a week ip; cis-platinum 5.5 mg/kg one time a week ip
Procedure: (§1) To determine whether compound 5 is efficacious against chemotherapy-resistant ovarian cancer, three pairs of sensitive and resistant human ovarian cancer cell lines were grown as subcutaneous xenografts in nude mice and treated as summarized in FIG. 10. These cell lines were: A2780, sensitive to both cis-platinum and Adriamycin (doxorubicin); A2780cis, resistant to cis-platinum; A2780ADR, resistant to Adriamycin: HEY, sensitive to Taxol; HEY-T30, resistant to Taxol. The treatments administered were: vehicle control; compound 5, 15 mg/kg/day six days a week, ip; cis-platinum 5.5 mg/kg, one time a week ip; Adriamycin 3 mg/kg twice a week ip; and Taxol 20 mg/kg twice a week ip.

[3] = system: A2780cis xenografts; assay: Subcutaneous xenografts in nude mice, cisplatin resistant; format: in vivo; conditions: compound 5 15 mg/kg/day six days a week ip; cis-platinum 5.5 mg/kg one time a week ip
Procedure: Compound 6 was also efficacious against chemotherapy-resistant ovarian cancer. […] The effect of compound 6 in cisplatin resistant (A2780cis) and doxorubicin (Adriamycin) resistant (A2780ADR) tumors was studied. Briefly, each of these cell lines was subcutaneously inoculated into athymic nude mice and when the tumor size reached 100-200 mm^3, compound 6 150 mg/kg/day or its vehicle were given i.p. After 11 days of treatment, for the cisplatin-resistant tumors the tumor volume of the vehicle group was 2388±127 mm^3 and for compound 6 group 1032±108 mm^3 (mean±SEM; P<0.02); while for the doxorubicin-resistant tumors these values were: vehicle group=1369±337 mm^3 and compound 6 group=396±182 mm^3 (P<0.02).
as §1

[4] = system: HEY-T30 xenografts; assay: Synergy with cyclophosphamide, Taxol resistant subcutaneous xenografts; format: in vivo, nude mice; conditions: day 21; compound 5 10 mg/kg/day six days a week ip; cyclophosphamide 10 mg/kg six days a week orally; or both
[5] = Ocular pharmacokinetics and biodistribution after eye drops; format: in vivo, New Zealand rabbits; design: unit not given here; conditions: rabbit, 20% eye drops
Procedure: The pharmacokinetics and biodistribution of compounds 1, 2, and 5 in the eye of rabbits were determined. Each of these compounds was dissolved in phosphate buffered saline (PBS) and used as eye drops. The eye drops were sterilized before application to rabbits by filtration through a 0.2 μm membrane. […] The eyes were harvested and eye tissues and the lacrimal glands were dissected, homogenized and the test compounds were extracted by acetonitrile and analyzed by HPLC, as described under Compound Synthesis described herein. Compounds 1 and 2 were detected at 328 nm, and compound 5 at 260 nm. […] All three compounds can unexpectedly, readily, and rapidly reach the posterior chamber of the eye.

[6] = system: oxygen-induced retinopathy; assay: Mouse model of oxygen-induced retinopathy; format: in vivo, C57BL/6 mice; conditions: 10% w/v eye drops 5 times daily, P12 to P17
Procedure: C57BL/6 mice were reared in 75±2% oxygen air starting on postnatal day 7 (P7) and moved into room air on P12, when they were injected intravitreally with 1 μl of 1% compound 6 solution or vehicle. On P17, the pups were euthanized, both eyes were enucleated and fixed with 4% paraformaldehyde (PFA). Following several intermediate steps, the retina was existed and fixed further with 4% PFA overnight. After appropriate washings, the retina was incubated with 10 μg/ml of FITC-conjugated anti-lectin antibody overnight and retina flat-mounts were prepared on glass slides and evaluated by fluorescence microscopy. The areas of the avascular, neovascular and whole retina were determined using ImageJ software.
In another study, the same mouse model of oxygen-induced retinopathy described above was used. In this study, mice were treated daily with an aqueous solution of compound 2 (pH=4.6, osmolarity=282 mOsm; concentration=10% w/v) from postnatal day 12 to day 17. Compound 2 was administered as one eye drop per eye every 2 hours during the day time for a total of 5 administrations daily. At the end of the study, mice were euthanized and their retinas dissected and studied by immunofluorescence using an antibody against lectin I, isolectin B4 (Vector Laboratories) and evaluated as above.

[7] = system: AGS gastric cancer; assay: 24 hr growth inhibition of cell line; format: cell-based; conditions: Homo sapiens
Procedure: (§2) The therapeutic efficacy of compounds 2, 5, and 6 was assessed in human and murine cell lines of varied tissue origin, and their 24 hr 50% inhibitory concentration was determined by following standard methodologies. Typical results are shown in the Table 5, indicating a broad anticancer effect.

[8] = system: HCT116 colon cancer; assay: 24 hr growth inhibition of cell line; format: cell-based; conditions: Homo sapiens, HCT-116, 24 h
Procedure: as §2

[9] = system: A549 lung cancer; assay: 24 hr growth inhibition of cell line; format: cell-based; conditions: Homo sapiens
Procedure: as §2

[10] = system: RAW264 murine macrophage; assay: 24 hr growth inhibition of cell line; format: cell-based; conditions: Mus musculus, RAW264.7, 24 h
Procedure: as §2

[11] = system: SKOV-3 ovarian cancer; assay: 24 hr growth inhibition of cell line; format: cell-based; conditions: Homo sapiens, SK-OV-3, 24 h
Procedure: as §2
Ovarian cancer cells were studied in greater detail using the following ovarian cancer cell lines: SKOV-3, OVCAR3, A2780 (and two cell lines derived from it, A2870cis that is resistant to cisplatin, and A2870ADR that is resistant to doxorubicin (Adriamycin)), and HEY (sensitive to paclitaxel (Taxol), and its derivative HEY-T30 that is Taxol-resistant). […]

[12] = Biodistribution in human eyes removed from deceased donors; format: in vitro ADME; conditions: human eye, 10% (w/v) solution, then 1 h incubation
Procedure: Compound 6 3% (formulated in polyethylene glycol 155; Tween 80% 1%; Kolliphor EL 10%, made to 100% with normal saline; pH 7.2) was injected iv as a single dose of 30 mg/kg. Its retina levels were 4.9 μM and 1 μM at 1 h and 2 h, respectively (the corresponding sclera levels were similar, 3.2 μM and 2.0 μM). When compound 6 was given ip (in corn oil) as a single dose of 100 mg/kg its retina levels became detectable at 3 h (3.2 μM) and remained at 2.8 μM at 4 h and 6 h. Similarly, after its single topical administration, compound 6 3% (formulated in vitamin E TPGS 16%, mannitol 3.2% boric acid 1.2% and polyquad 0.005%, pH 7.2) produced retinal levels of 2.1 μM at 4 h. The biodistribution of compound 2 in human eyes that were recently removed from deceased donors and kept on ice until used within hours was also evaluated. In this study, compound 2 was dissolved in pure water, its pH was adjusted to 4.8±0.1 and its osmolarity to 290 mOsm. The final concentration of compound 2 was 10% (w/v).
The anterior surface of each was brought into contact with the above solution of compound 2 at 37° C.; the solution level was about 3 mm above the cornea edge. After 1 minute or 10 minutes the eyes were rinsed thoroughly with PBS, incubated for 1 h, and dissected to harvest the retina, choroid, aqueous humor, ciliary body, iris and cornea, which ere assayed by HPLC. As shown in the below table, compound 2 did reach the posterior segment of the eye.

Question: With CCOP(=O)(OCC)OCCCCOC(=O)CC1=C(C)/C(=C/c2ccc([S+](C)[O-])cc2)c2ccc(F)cc21 (stereo not drawn) [phosphosulindac, reference compound] as the molecule, how does the “suppression of palmitoylation of Ras” value [1] read?
Answer: not shared

Question: Which “growth of platinum-sensitive xenografts” value [2] does the source give for N.N.[Cl][Pt][Cl] [cis-platinum, reference compound] here?
Answer: suppressed the growth

Question: And the “growth of platinum-resistant xenografts” value [3]?
Answer: failed to significantly inhibit tumor growth

Question: Which “inhibition of tumor growth compared to control” value [4] does the source give for O=P1(N(CCCl)CCCl)NCCCO1 (stereo not drawn) [cyclophosphamide, reference compound] here?
Answer: 23%

Question: Which results are given for CC1=C(CC(=O)N2CCN(CCNS(C)(=O)=O)CC2)c2cc(F)ccc2/C1=C\c1ccc([S+](C)[O-])cc1 (stereo not drawn) [Compound 1]?
Answer: Drug level in Choroid ([5]; 1 hr): 4.1; Drug level in Conjunctiva ([5]; 1 hr): 71.6; Drug level in Cornea ([5]; 1 hr): 61.8; Drug level in Iris ([5]; 1 hr): 6.9; Drug level in Lens ([5]; 1 hr): 20.2; Drug level in Retina ([5]; 1 hr): 7.5; Drug level in Sclera ([5]; 1 hr): 10.1; Drug level in Vitreous ([5]; 1 hr): 0.9; Drug level in Choroid ([5]; 3 hr): 2.1; Drug level in Conjunctiva ([5]; 3 hr): 52.5; Drug level in Cornea ([5]; 3 hr): 16.2; Drug level in Iris ([5]; 3 hr): 7.6; Drug level in Lens ([5]; 3 hr): 4.6; Drug level in Retina ([5]; 3 hr): 1.8; Drug level in Sclera ([5]; 3 hr): 2.5; Drug level in Vitreous ([5]; 3 hr): 0.5

Question: Which “Drug level in Choroid” value ([5]; 2 hr) does the source give for CCOP(=O)(NCCN1CCN(C(=O)CC2=C(C)/C(=C/c3ccc([S+](C)[O-])cc3)c3ccc(F)cc32)CC1)OCC (stereo not drawn) [Compound 2] here?
Answer: 5.3

Question: And the “Drug level in Conjunctiva” value ([5]; 2 hr)?
Answer: 16.1

Question: And the “Drug level in Cornea” value ([5]; 2 hr)?
Answer: 106.1

Question: And the “Drug level in Iris” value ([5]; 2 hr)?
Answer: 9.9

Question: And the “Drug level in Lens” value ([5]; 2 hr)?
Answer: 0.3

Question: What about the “Drug level in Retina” value ([5]; 2 hr) of the same molecule?
Answer: 4.1

Question: And the “Drug level in Sclera” value ([5]; 2 hr)?
Answer: 50.7

Question: What about the “Drug level in Vitreous” value ([5]; 2 hr) of the same molecule?
Answer: 1.2

Question: What about the “Drug level in Choroid” value ([5]; 3 hr) of the same molecule?
Answer: 6.4

Question: What about the “Drug level in Conjunctiva” value ([5]; 3 hr) of the same molecule?
Answer: 13.5

Question: What about the “Drug level in Cornea” value ([5]; 3 hr) of the same molecule?
Answer: 46.0

Question: And the “Drug level in Iris” value ([5]; 3 hr)?
Answer: 9.8

Question: What about the “Drug level in Lens” value ([5]; 3 hr) of the same molecule?
Answer: 4.0

Question: And the “Drug level in Retina” value ([5]; 3 hr)?
Answer: 1.7

Question: And the “Drug level in Sclera” value ([5]; 3 hr)?
Answer: 22.4

Question: And the “avascular area of the retina, percentage of the entire retina surface area (mean±SEM)” value ([6]; vehicle 16.8±1.1)?
Answer: 5.8±0.8%

Question: And the “neovascular area of the retina, percentage of the entire retina surface area (mean±SEM)” value ([6]; vehicle 20.7±3.7)?
Answer: 9.9±2.2%

Question: What about the pIC50 [7] of the same molecule?
Answer: 3.51

Question: And the pIC50 [8]?
Answer: 3.34

Question: And the pIC50 [9]?
Answer: 3.40

Question: What about the pIC50 [10] of the same molecule?
Answer: 3.80

Question: And the pIC50 [11]?
Answer: 3.32

Question: And the “level in aqueous humor” value ([12]; 1 minute exposure)?
Answer: 1.0 µM

Question: And the level in choroid ([12]; 1 minute exposure)?
Answer: 425.9 µM

Question: And the “level in ciliary body” value ([12]; 1 minute exposure)?
Answer: 124.6 µM

Question: What about the level in cornea ([12]; 1 minute exposure) of the same molecule?
Answer: 166.3 µM

Question: And the level in iris ([12]; 1 minute exposure)?
Answer: 43.1 µM

Question: What about the level in retina ([12]; 1 minute exposure) of the same molecule?
Answer: 12.6 µM

Question: What about the “level in aqueous humor” value ([12]; 10 minutes exposure) of the same molecule?
Answer: 5.3 µM

Question: And the level in choroid ([12]; 10 minutes exposure)?
Answer: 273.5 µM

Question: And the “level in ciliary body” value ([12]; 10 minutes exposure)?
Answer: 206.9 µM

Question: What about the level in cornea ([12]; 10 minutes exposure) of the same molecule?
Answer: 512.6 µM

Question: And the level in iris ([12]; 10 minutes exposure)?
Answer: 10.3 µM

Question: And the level in retina ([12]; 10 minutes exposure)?
Answer: 46.6 µM
